Results: PubChem BioAssay AID977614 (Broad Institute, 2014)
Activity calls are given as the source filed them.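 Rule for the calls: active = parasite count per well reduced by over 3 SD from the mean, with host cell number above 80% of untreated; inactive = the rest.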

System: L. donovani amastigotes in THP-1 macrophages, DAPI imaging, 72 h
Test: antileishmanial activity in infected macrophages – imaging, THP-1 host macrophages, single concentration (AID 977614);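 note: signal is the parasite per host cell ratio from DAPI stained kinetoplasts and nuclei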

Row | SMILES | AC50
1 | C[C@@H]1CN([C@H](C)CO)C(=O)CCCn2cc(nn2)CO[C@@H]1CN(C)C(=O)Nc1ccc2c(c1)OCO2 | > 10 µM (inactive)
2 | CN(C[C@@H]1N[C@H](CO)[C@@H]1c1ccc(C#CCC2CCCC2)cc1)S(C)(=O)=O | > 10 µM (inactive)
3 | O=C(Nc1ccccc1Cl)N1C[C@H]2[C@@H](c3ccccc31)[C@@H](CO)N2C(=O)c1cccnc1 | > 10 µM (inactive)
4 | CC(C)NC[C@@H]1[C@H](c2ccc(C3=CCCCC3)cc2)[C@H](CO)N1S(C)(=O)=O | > 10 µM (inactive)
5 | COc1ccccc1CN1[C@@H]2CN(C(=O)c3cccnc3)c3ccccc3[C@@H]2[C@@H]1CO | > 10 µM (inactive)
6 | COc1ccc(NC(=O)N(C)C[C@H]2OCc3cnnn3CCCC(=O)N([C@@H](C)CO)C[C@@H]2C)c(OC)c1 | > 10 µM (inactive)
7 | CCCNC(=O)N1[C@@H]2CN(C(=O)Nc3cccc(Cl)c3)c3ccccc3[C@@H]2[C@@H]1CO | > 10 µM (inactive)
8 | CCC(=O)N1[C@@H](CO)[C@H](c2ccccc2)[C@@H]1CN(C)C(=O)CN1CCOCC1 | > 10 µM (inactive)
9 | CCN(C[C@H]1[C@H](c2ccccc2)[C@H](CO)N1C(=O)COC)S(C)(=O)=O | > 10 µM (inactive)
10 | O=C(NC[C@@H]1[C@@H](c2ccccc2)[C@@H](CO)N1Cc1cccnc1)c1ccccn1 | > 10 µM (inactive)
11 | CCN(C[C@H]1[C@H](c2ccc(C3=CCCCC3)cc2)[C@H](CO)N1CC1CC1)C(C)=O | > 10 µM (inactive)
12 | C[C@H](CO)N1C[C@H](C)[C@@H](CN(C)C(=O)Nc2ccc3c(c2)OCCO3)OCc2cnnn2CCCC1=O | > 10 µM (inactive)
13 | C[C@H](CO)N1C[C@H](C)[C@H](CN(C)C(=O)Nc2ccc(-c3cccs3)cc2)OCc2cnnn2CCCC1=O | > 10 µM (inactive)
14 | C[C@H]1CN([C@@H](C)CO)C(=O)CCCn2nncc2CO[C@H]1CN(C)S(=O)(=O)c1ccc2c(c1)OCCCO2 | > 10 µM (inactive)
15 | CN(C[C@@H]1[C@@H](c2ccccc2)[C@H](CO)N1Cc1ccccn1)S(C)(=O)=O | > 10 µM (inactive)
16 | C[C@H]1CN([C@@H](C)CO)C(=O)CCCn2nncc2CO[C@H]1CN(C)S(=O)(=O)c1cn(C)cn1 | > 10 µM (inactive)
17 | C[C@H](CO)N1C[C@H](C)[C@H](CN(C)C(=O)NC2CCCCC2)OCc2cn(nn2)CCCC1=O | > 10 µM (inactive)
18 | C[C@@H]1CN([C@H](C)CO)C(=O)CCCn2nncc2CO[C@@H]1CN(C)Cc1cccc(C(F)(F)F)c1 | > 10 µM (inactive)
19 | O=C(Nc1ccc(F)cc1)N1[C@@H]2CNc3ccccc3[C@@H]2[C@@H]1CO | > 10 µM (inactive)
20 | C[C@H]1CN([C@@H](C)CO)C(=O)CCCn2nncc2CO[C@@H]1CN(C)C(=O)c1ccc2ccn(C)c2c1 | > 10 µM (inactive)
21 | C[C@H](CO)N1C[C@H](C)[C@@H](CN(C)S(=O)(=O)c2cccc(C#N)c2)OCc2cn(nn2)CCCC1=O | > 10 µM (inactive)
22 | O=C(c1ccc2c(c1)OCO2)N1C[C@@H]2[C@H](c3ccccc31)[C@@H](CO)N2Cc1cccnc1 | > 10 µM (inactive)
23 | Cc1noc(C)c1S(=O)(=O)N(C)C[C@H]1OCc2cnnn2CCCC(=O)N([C@H](C)CO)C[C@H]1C | > 10 µM (inactive)
24 | C[C@@H]1CN([C@@H](C)CO)C(=O)CCCn2nncc2CO[C@@H]1CN(C)C(=O)Nc1ccnc(N2CCOCC2)c1 | > 10 µM (inactive)
25 | O=C(CN1CCOCC1)N1[C@H](CO)[C@H]2c3ccccc3NC[C@H]21 | > 10 µM (inactive)
26 | C[C@H](CO)N1C[C@H](C)[C@H](CN(C)Cc2ccccc2C(=O)O)OCc2cnnn2CCCC1=O | > 10 µM (inactive)

Row | SMILES | AC50
27 | Cc1cccc(S(=O)(=O)N2C[C@H]3[C@@H](c4ccccc42)[C@H](CO)N3CC2CCCC2)c1 | > 10 µM (inactive)
28 | CC(C)CNC[C@@H]1[C@@H](c2ccccc2)[C@@H](CO)N1Cc1ccc(F)cc1 | > 10 µM (inactive)
29 | CN1C[C@H]2[C@@H](c3ccccc31)[C@H](CO)N2S(=O)(=O)c1ccccc1 | > 10 µM (inactive)
30 | C/C=C/c1ccc([C@H]2[C@@H](CO)N[C@@H]2CN(CC(C)C)C(=O)c2ccccn2)cc1 | > 10 µM (inactive)
31 | C[C@@H]1CN([C@H](C)CO)C(=O)CCCn2nncc2CO[C@H]1CN(C)C(=O)c1ccc2ccn(C)c2c1 | > 10 µM (inactive)
32 | CCN(C[C@@H]1[C@@H](c2ccccc2)[C@H](CO)N1CC1CC1)C(=O)c1ccccn1 | > 10 µM (inactive)
33 | O=C(C1CCOCC1)N1C[C@H]2[C@@H](c3ccccc31)[C@@H](CO)N2C(=O)Cc1ccccn1 | > 10 µM (inactive)
34 | CCS(=O)(=O)N1[C@H](CO)[C@H](c2ccccc2)[C@@H]1CN(C)Cc1ccccn1 | > 10 µM (inactive)
35 | C/C=C/c1ccc([C@H]2[C@@H](CO)N(C(C)=O)[C@@H]2CNC(=O)c2ccccc2)cc1 | > 10 µM (inactive)
36 | C[C@@H]1CN([C@H](C)CO)C(=O)CCCn2nncc2CO[C@@H]1CN(C)Cc1cccc2c1OCCCO2 | > 10 µM (inactive)
37 | CN(C[C@@H]1N[C@H](CO)[C@@H]1c1ccc(-c2cccc(F)c2)cc1)C(=O)CC1CC1 | > 10 µM (inactive)
38 | C/C=C/c1ccc([C@H]2[C@@H](CO)N(C(=O)C3CC3)[C@@H]2CNC(=O)NC(C)C)cc1 | > 10 µM (inactive)
39 | CC(=O)N1[C@H](CN(CC(C)C)C(=O)c2ccccn2)[C@@H](c2ccccc2)[C@@H]1CO | > 10 µM (inactive)
40 | C[C@H]1CN([C@@H](C)CO)C(=O)CCCn2nncc2CO[C@H]1CN(C)Cc1cccc2c1OCCCO2 | > 10 µM (inactive)
41 | COCC(=O)NC[C@H]1[C@H](c2ccccc2)[C@@H](CO)N1C(=O)c1ccccc1 | > 10 µM (inactive)
42 | CCN(C[C@@H]1N[C@@H](CO)[C@H]1c1ccccc1)C(=O)c1ccncc1 | > 10 µM (inactive)
43 | O=C(CC(F)(F)F)N1C[C@@H]2[C@H](c3ccccc31)[C@@H](CO)N2Cc1cccnc1 | > 10 µM (inactive)
44 | C[C@H]1CN([C@@H](C)CO)C(=O)CCCn2nncc2CO[C@@H]1CN(C)C(=O)Nc1ccnc(N2CCOCC2)c1 | > 10 µM (inactive)
45 | Cc1noc(C)c1S(=O)(=O)N(C)C[C@H]1OCc2cn(nn2)CCCC(=O)N([C@@H](C)CO)C[C@@H]1C | > 10 µM (inactive)
46 | O=C(c1ccccc1F)N1C[C@H]2[C@@H](c3ccccc31)[C@H](CO)N2Cc1ccc2c(c1)OCO2 | > 10 µM (inactive)
47 | CC(=O)N(CC1CCC1)C[C@H]1N[C@H](CO)[C@@H]1c1ccc(C2=CCCC2)cc1 | > 10 µM (inactive)
48 | O=C(C1CCCCC1)N1[C@@H]2CN(S(=O)(=O)c3ccccc3)c3ccccc3[C@@H]2[C@@H]1CO | > 10 µM (inactive)
49 | OC[C@@H]1[C@@H]2c3ccccc3NC[C@@H]2N1Cc1ccccc1Cl | > 10 µM (inactive)
50 | CCS(=O)(=O)N1[C@H](CO)[C@H](c2ccccc2)[C@H]1CN(C(C)=O)C1CCCC1 | > 10 µM (inactive)
51 | COc1cccc(NC(=O)N2[C@@H](CO)[C@@H](c3ccccc3)[C@@H]2CNCC(C)C)c1 | > 10 µM (inactive)
52 | CC(C)NC(=O)N1[C@@H](CO)[C@H](c2ccccc2)[C@@H]1CN(C)C(=O)c1cccnc1 | > 10 µM (inactive)

Row | SMILES | AC50
53 | CCCNC(=O)N1C[C@@H]2[C@H](c3ccccc31)[C@@H](CO)N2Cc1cccc(OC)c1 | > 10 µM (inactive)
54 | CCCN1[C@H](CO)[C@H](c2ccc(-c3ccccc3F)cc2)[C@@H]1CNC(=O)C1CCC1 | > 10 µM (inactive)
55 | COc1ccccc1NC(=O)N1C[C@H]2[C@@H](c3ccccc31)[C@@H](CO)N2C(=O)C1CCCC1 | > 10 µM (inactive)
56 | C[C@@H]1CN([C@H](C)CO)C(=O)CCCn2cc(nn2)CO[C@H]1CN(C)S(=O)(=O)c1cccc(C#N)c1 | > 10 µM (inactive)
57 | C[C@H]1CN([C@@H](C)CO)C(=O)CCCn2cc(nn2)CO[C@H]1CN(C)C(=O)c1ccc(N2CCN(C)CC2)cc1 | > 10 µM (inactive)
58 | COc1ccc(C(=O)N2C[C@H]3[C@@H](c4ccccc42)[C@H](CO)N3Cc2ccccc2Cl)cc1 | > 10 µM (inactive)
59 | C[C@@H]1CN([C@H](C)CO)C(=O)CCCn2nncc2CO[C@H]1CN(C)Cc1ccccc1C(=O)O | > 10 µM (inactive)
60 | O=C(NC[C@H]1[C@H](c2ccccc2)[C@H](CO)N1C(=O)Cc1ccncc1)C1CCC1 | > 10 µM (inactive)
61 | O=C(CC(F)(F)F)N1C[C@@H]2[C@H](c3ccccc31)[C@@H](CO)N2C(=O)C1CCCCC1 | > 10 µM (inactive)
62 | O=C(c1ccccc1)N1C[C@H]2[C@@H](c3ccccc31)[C@@H](CO)N2Cc1ccccn1 | > 10 µM (inactive)
63 | C[C@@H]1CN([C@@H](C)CO)C(=O)CCCn2cc(nn2)CO[C@H]1CN(C)S(=O)(=O)c1cccc(C#N)c1 | > 10 µM (inactive)
64 | CC(C)N(C[C@H]1[C@H](c2ccccc2)[C@@H](CO)N1S(C)(=O)=O)C(=O)CN(C)C | > 10 µM (inactive)
65 | CC(=O)N1[C@H](CO)[C@@H]2c3ccccc3N(S(=O)(=O)c3ccccc3C)C[C@@H]21 | > 10 µM (inactive)
66 | COCCNC[C@H]1[C@H](c2ccccc2)[C@H](CO)N1c1nc(C)c(C)s1 | > 10 µM (inactive)
67 | O=C(c1ccccc1F)N1C[C@H]2[C@@H](c3ccccc31)[C@@H](CO)N2Cc1ccc2c(c1)OCO2 | > 10 µM (inactive)
68 | CN(C)CC(=O)N1C[C@@H]2[C@H](c3ccccc31)[C@H](CO)N2C(=O)c1ccccn1 | > 10 µM (inactive)
69 | O=C(NC[C@H]1N[C@@H](CO)[C@H]1c1ccc(-c2ccccc2F)cc1)c1ccccn1 | > 10 µM (inactive)
70 | COCCN(C[C@@H]1[C@@H](c2ccccc2)[C@H](CO)N1C(=O)C1CC1)C(C)=O | > 10 µM (inactive)
71 | C[C@H](CO)N1C[C@H](C)[C@H](CN(C)C(=O)c2ccc(N3CCN(C)CC3)cc2)OCc2cn(nn2)CCCC1=O | > 10 µM (inactive)
72 | COCC(=O)N1C[C@@H]2[C@H](c3ccccc31)[C@@H](CO)N2C(=O)c1ccccc1F | > 10 µM (inactive)
73 | COc1ccc(C(=O)N2C[C@H]3[C@@H](c4ccccc42)[C@@H](CO)N3Cc2ccccc2Cl)cc1 | > 10 µM (inactive)
74 | O=S(=O)(c1ccc(F)cc1)N1C[C@@H]2[C@H](c3ccccc31)[C@@H](CO)N2Cc1ccccc1Cl | > 10 µM (inactive)
75 | O=C(Nc1cccc(F)c1)N1C[C@H]2[C@@H](c3ccccc31)[C@H](CO)N2C(=O)Cc1ccccn1 | > 10 µM (inactive)
76 | CCC(=O)N1[C@H](CO)[C@H](c2ccc(-c3cccc(OC)c3)cc2)[C@H]1CNC(C)=O | > 10 µM (inactive)
